In ChEMBL document CHEMBL3880422, “C-terminal modified oxamyl dipeptides as inhibitors of the ICE/ced-3 family of cysteine proteases” (2007):

Experiments:
Caspase-6 (Homo sapiens) = target: T1, Caspase-6 (Homo sapiens) (UniProt P55212); test: Inhibition of recombinant MCH2 (unknown origin) assessed as ratio of irreversible rate constant K3 to dissociation constant of the reversible binding step Ki pre-incubated for 60 mins with Acetyl-Tyr-Val-Ala-Asp-amino-4-methylcoumarin substrate followed by enzyme addition by fluorescence based assay
T1 sequence (whole entry): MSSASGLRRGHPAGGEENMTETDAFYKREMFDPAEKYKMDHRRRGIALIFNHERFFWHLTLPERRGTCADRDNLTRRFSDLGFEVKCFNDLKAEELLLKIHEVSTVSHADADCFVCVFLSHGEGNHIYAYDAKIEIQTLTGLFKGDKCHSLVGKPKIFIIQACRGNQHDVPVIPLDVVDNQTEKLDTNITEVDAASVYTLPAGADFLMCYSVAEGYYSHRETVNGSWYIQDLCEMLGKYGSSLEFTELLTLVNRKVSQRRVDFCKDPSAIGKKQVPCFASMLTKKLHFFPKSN

Caspase-1 (Mus musculus) = target: T2, Caspase-1 (Mus musculus) (UniProt P29452); test: Inhibition of mouse recombinant ICE assessed as ratio of irreversible rate constant K3 to dissociation constant of the reversible binding step Ki pre-incubated for 60 mins with Acetyl-Tyr-Val-Ala-Asp-amino-4-methylcoumarin substrate followed by enzyme addition by fluorescence based assay
T2 sequence (whole entry): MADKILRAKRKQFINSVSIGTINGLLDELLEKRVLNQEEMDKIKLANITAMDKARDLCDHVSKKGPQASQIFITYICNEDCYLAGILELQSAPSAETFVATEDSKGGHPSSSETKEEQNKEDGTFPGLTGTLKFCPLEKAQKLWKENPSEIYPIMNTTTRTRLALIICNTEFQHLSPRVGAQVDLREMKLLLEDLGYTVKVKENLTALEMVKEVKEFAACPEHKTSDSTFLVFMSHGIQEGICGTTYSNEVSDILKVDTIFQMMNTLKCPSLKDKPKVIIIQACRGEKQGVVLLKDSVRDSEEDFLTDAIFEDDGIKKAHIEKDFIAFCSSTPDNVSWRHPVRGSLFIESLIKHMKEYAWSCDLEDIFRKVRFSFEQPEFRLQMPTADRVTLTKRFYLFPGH

Caspase-3 (Homo sapiens) = target: T3, Caspase-3 (Homo sapiens) (UniProt P42574); test: Inhibition of recombinant CPP32 (unknown origin) assessed as ratio of irreversible rate constant K3 to dissociation constant of the reversible binding step Ki pre-incubated for 60 mins with Acetyl-Tyr-Val-Ala-Asp-amino-4-methylcoumarin substrate followed by enzyme addition by fluorescence based assay
T3 sequence (whole entry): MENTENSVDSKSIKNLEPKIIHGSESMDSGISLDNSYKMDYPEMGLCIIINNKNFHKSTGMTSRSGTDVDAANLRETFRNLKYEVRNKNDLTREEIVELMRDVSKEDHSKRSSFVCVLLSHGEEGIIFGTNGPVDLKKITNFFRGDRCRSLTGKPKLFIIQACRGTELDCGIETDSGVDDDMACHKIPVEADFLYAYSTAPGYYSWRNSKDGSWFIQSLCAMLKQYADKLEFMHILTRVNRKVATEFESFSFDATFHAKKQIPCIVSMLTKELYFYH

Caspase-8 (Homo sapiens) = Caspase-8 (Homo sapiens) (UniProt Q14790); test: Inhibition of recombinant MCH5 (unknown origin) assessed as ratio of irreversible rate constant K3 to dissociation constant of the reversible binding step Ki pre-incubated for 60 mins with Acetyl-Tyr-Val-Ala-Asp-amino-4-methylcoumarin substrate followed by enzyme addition by fluorescence based assay
Sequence of Caspase-8 (Homo sapiens) (Q14790 217-374 limits assumed): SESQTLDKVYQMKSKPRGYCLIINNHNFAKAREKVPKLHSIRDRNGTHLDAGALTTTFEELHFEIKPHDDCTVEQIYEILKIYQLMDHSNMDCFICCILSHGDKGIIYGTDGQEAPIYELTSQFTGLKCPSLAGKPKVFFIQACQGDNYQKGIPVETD
Sequence of Caspase-8 (Homo sapiens) (Q14790 385-479 limits assumed): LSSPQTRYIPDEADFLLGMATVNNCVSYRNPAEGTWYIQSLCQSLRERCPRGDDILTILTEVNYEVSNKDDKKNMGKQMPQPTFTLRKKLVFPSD

SMILES	Ratio (Caspase-6 (Homo sapiens))	Ratio (Caspase-1 (Mus musculus))	Ratio (Caspase-3 (Homo sapiens))	Ratio (Caspase-8 (Homo sapiens))
C[C@H](NC(=O)C(=O)NCCc1ccccc1)C(=O)N[C@@H](CC(=O)O)C(=O)COP(=O)(c1ccccc1)c1ccccc1	131000 M⁻¹ s⁻¹	1.23e+06 M⁻¹ s⁻¹	169000 M⁻¹ s⁻¹	667000 M⁻¹ s⁻¹
CC(C)[C@H](NC(=O)C(=O)Nc1ccncc1)C(=O)N[C@@H](CC(=O)O)C(=O)COc1c(F)c(F)cc(F)c1F	5580 M⁻¹ s⁻¹	912 M⁻¹ s⁻¹	511 M⁻¹ s⁻¹	1140 M⁻¹ s⁻¹
C[C@H](NC(=O)C(=O)Nc1ccccc1C(C)(C)C)C(=O)N[C@@H](CC(=O)O)C(=O)COc1ccccc1F	54900 M⁻¹ s⁻¹	442000 M⁻¹ s⁻¹	67700 M⁻¹ s⁻¹	119000 M⁻¹ s⁻¹
CC(C)[C@H](NC(=O)C(=O)NCc1ccccc1)C(=O)N[C@@H](CC(=O)O)C(=O)COc1c(F)c(F)cc(F)c1F	16600 M⁻¹ s⁻¹	1.8e+06 M⁻¹ s⁻¹	21000 M⁻¹ s⁻¹	472000 M⁻¹ s⁻¹
C[C@H](NC(=O)C(=O)Nc1ccccc1F)C(=O)N[C@@H](CC(=O)O)C(=O)COC(=O)c1c(Cl)cccc1Cl	129000 M⁻¹ s⁻¹	172000 M⁻¹ s⁻¹	68900 M⁻¹ s⁻¹	155000 M⁻¹ s⁻¹
CC(C)[C@H](NC(=O)C(=O)Nc1cccc2ccccc12)C(=O)NC(CC(=O)O)C(=O)CF (mixture of isomers)	199000 M⁻¹ s⁻¹	2.17e+06 M⁻¹ s⁻¹	413000 M⁻¹ s⁻¹	1.16e+06 M⁻¹ s⁻¹
CC(C)[C@H](NC(=O)C(=O)NCCc1ccccc1)C(=O)N[C@@H](CC(=O)O)C(=O)COc1c(F)c(F)cc(F)c1F	12600 M⁻¹ s⁻¹	77100 M⁻¹ s⁻¹	13400 M⁻¹ s⁻¹	16600 M⁻¹ s⁻¹
CC(C)[C@H](NC(=O)C(=O)Nc1ccccc1Br)C(=O)N[C@@H](CC(=O)O)C(=O)COc1c(F)c(F)cc(F)c1F	230000 M⁻¹ s⁻¹	1.08e+06 M⁻¹ s⁻¹	276000 M⁻¹ s⁻¹	1.3e+06 M⁻¹ s⁻¹
CCCOc1ccc(OCC(=O)[C@H](CC(=O)O)NC(=O)[C@@H](NC(=O)C(=O)Nc2cccc3ccccc23)C(C)C)cc1	63000 M⁻¹ s⁻¹	825000 M⁻¹ s⁻¹	167000 M⁻¹ s⁻¹	286000 M⁻¹ s⁻¹
CC(C)[C@H](NC(=O)C(=O)Nc1c(F)c(F)nc(F)c1F)C(=O)N[C@@H](CC(=O)O)C(=O)COc1c(F)c(F)cc(F)c1F	170000 M⁻¹ s⁻¹	1.22e+06 M⁻¹ s⁻¹	153000 M⁻¹ s⁻¹	389000 M⁻¹ s⁻¹
CC(C)[C@H](NC(=O)C(=O)Nc1c(F)cccc1F)C(=O)N[C@@H](CC(=O)O)C(=O)COc1c(F)c(F)cc(F)c1F	1.08e+06 M⁻¹ s⁻¹	2.68e+06 M⁻¹ s⁻¹	62900 M⁻¹ s⁻¹	1.83e+06 M⁻¹ s⁻¹
CC(C)[C@H](NC(=O)C(=O)Nc1ccccc1-c1ccccc1)C(=O)N[C@@H](CC(=O)O)C(=O)COc1c(F)c(F)cc(F)c1F	31700 M⁻¹ s⁻¹	127000 M⁻¹ s⁻¹	25400 M⁻¹ s⁻¹	65300 M⁻¹ s⁻¹
CC(C)[C@H](NC(=O)C(=O)Nc1cccc2ccccc12)C(=O)N[C@@H](CC(=O)O)C(=O)COc1ccc(O)cc1	69100 M⁻¹ s⁻¹	1.84e+06 M⁻¹ s⁻¹	286000 M⁻¹ s⁻¹	625000 M⁻¹ s⁻¹
CC(C)[C@H](NC(=O)C(=O)Nc1ccc(F)cc1)C(=O)N[C@@H](CC(=O)O)C(=O)COc1c(F)c(F)cc(F)c1F	121000 M⁻¹ s⁻¹	906000 M⁻¹ s⁻¹	36300 M⁻¹ s⁻¹	338000 M⁻¹ s⁻¹
CC(C)[C@H](NC(=O)C(=O)NC12CC3CC(CC(C3)C1)C2)C(=O)N[C@@H](CC(=O)O)C(=O)COc1c(F)c(F)cc(F)c1F	10700 M⁻¹ s⁻¹	184000 M⁻¹ s⁻¹	6330 M⁻¹ s⁻¹	59900 M⁻¹ s⁻¹
CC(C)[C@H](NC(=O)C(=O)NC1CCCc2ccccc21)C(=O)N[C@@H](CC(=O)O)C(=O)COc1c(F)c(F)cc(F)c1F (some centres undefined)	160000 M⁻¹ s⁻¹	2.32e+06 M⁻¹ s⁻¹	98600 M⁻¹ s⁻¹	456000 M⁻¹ s⁻¹
CC(C)[C@H](NC(=O)C(=O)Nc1cc(C(C)(C)C)ccc1C(C)(C)C)C(=O)N[C@@H](CC(=O)O)C(=O)COc1c(F)c(F)cc(F)c1F	8230 M⁻¹ s⁻¹	767000 M⁻¹ s⁻¹	70600 M⁻¹ s⁻¹	51300 M⁻¹ s⁻¹
C[C@H](NC(=O)C(=O)NCc1cccc2ccccc12)C(=O)N[C@@H](CC(=O)O)C(=O)COC(=O)c1c(Cl)cccc1Cl	214000 M⁻¹ s⁻¹	1.16e+06 M⁻¹ s⁻¹	187000 M⁻¹ s⁻¹	936000 M⁻¹ s⁻¹
C[C@H](NC(=O)C(=O)Nc1ccccc1Cl)C(=O)N[C@@H](CC(=O)O)C(=O)COC(=O)c1c(Cl)cccc1Cl	281000 to 745000 M⁻¹ s⁻¹	278000 to 1.94e+06 M⁻¹ s⁻¹	323000 to 842000 M⁻¹ s⁻¹	396000 to 1.63e+06 M⁻¹ s⁻¹
C[C@H](NC(=O)C(=O)Nc1ccccc1C(C)(C)C)C(=O)N[C@@H](CC(=O)O)C(=O)COP(=O)(c1ccccc1)c1ccccc1	275000 to 484000 M⁻¹ s⁻¹	159000 to 625000 M⁻¹ s⁻¹	327000 to 395000 M⁻¹ s⁻¹	282000 to 589000 M⁻¹ s⁻¹
CC(C)[C@H](NC(=O)C(=O)Nc1ccccc1Cc1ccccc1)C(=O)N[C@@H](CC(=O)O)C(=O)COc1c(F)c(F)cc(F)c1F	25300 M⁻¹ s⁻¹	344000 M⁻¹ s⁻¹	54800 M⁻¹ s⁻¹	105000 M⁻¹ s⁻¹
COc1ccccc1NC(=O)C(=O)N[C@H](C(=O)N[C@@H](CC(=O)O)C(=O)COc1c(F)c(F)cc(F)c1F)C(C)C	61500 M⁻¹ s⁻¹	2.07e+06 M⁻¹ s⁻¹	10800 M⁻¹ s⁻¹	2.68e+06 M⁻¹ s⁻¹
C[C@H](NC(=O)C(=O)Nc1ccccc1-c1ccccc1)C(=O)N[C@@H](CC(=O)O)C(=O)COP(=O)(c1ccccc1)c1ccccc1	317000 M⁻¹ s⁻¹	345000 M⁻¹ s⁻¹	243000 M⁻¹ s⁻¹	207000 M⁻¹ s⁻¹
C[C@H](NC(=O)C(=O)Nc1cc(C(C)(C)C)ccc1C(C)(C)C)C(=O)N[C@@H](CC(=O)O)C(=O)COC(=O)c1c(Cl)cccc1Cl	146000 M⁻¹ s⁻¹	289000 M⁻¹ s⁻¹	189000 M⁻¹ s⁻¹	306000 M⁻¹ s⁻¹
C[C@H](NC(=O)C(=O)Nc1cc(C(C)(C)C)ccc1C(C)(C)C)C(=O)N[C@@H](CC(=O)O)C(=O)COc1c(F)c(F)cc(F)c1F	192000 M⁻¹ s⁻¹	195000 M⁻¹ s⁻¹	221000 M⁻¹ s⁻¹	248000 M⁻¹ s⁻¹
C[C@H](NC(=O)C(=O)Nc1ccccc1Cc1ccccc1)C(=O)N[C@@H](CC(=O)O)C(=O)COc1c(F)c(F)cc(F)c1F	5850 M⁻¹ s⁻¹	323000 M⁻¹ s⁻¹	3430 M⁻¹ s⁻¹	154000 M⁻¹ s⁻¹
